Read-outs that look alike come from different tables or passages of the source. Marks after values point to notes of the source that are not given here.
Tests used:
subcutaneous fat [1] = assay: Randomized controlled trial in mice, daily percutaneous application to right flank for 24 days (Example 1); format: in vivo, C57BL/6J mice; conditions: for Mean weight gain relative to vehicle / Mean weight gain / Local increase in subcutaneous fat (treated right flank vs untreated left flank): 5 mM in Lipoderm; for Mean weight gain relative to vehicle / Mean weight gain: 0.1 cc to flank daily, Day 0 until Day 24; for Mean weight gain: high-fat diet; for Local increase in subcutaneous fat (treated right flank vs untreated left flank): following 24 days of therapy
Method: The arms were as follows: vehicle (Lipoderm®), a thiazolidinedione (pioglitazone), harmine, an orexigenic compound (megestrol acetate), and efavirenz. Each compound was combined in the percutaneous Lipoderm® formulation at an equimolar concentration (5 mM). The Lipoderm® vehicle is adapted to deliver the respective compound percutaneously, i.e., across the skin and into subcutaneous fat. The formulations were applied daily to the right flank of each animal, whereas the left flank was used as an untreated control.
A randomized controlled trial was conducted on C57BL/6J. Male mice approximately six weeks old were prospectively randomized into groups and assigned to the following treatment conditions (n=5 animals per group):
Animals were shaved and depilated over the flanks at the start of the study.
Animals were kept in identical conditions and fed ab libitum with a standardized high-fat diet (70% kcal fat). Animals were weighed three times weekly. Following 24 consecutive days of treatment, mice were sacrificed and samples of skin and adjacent fat from the treated flanks are taken for histologic examination.

subcutaneous fat [2] = conditions: for Rosiglitazone Increase over Placebo (fat thickness), MEAN: 42 days, p<0.0001
Method: A prospective controlled trial was performed in 4 Gottingen minipigs (2 males, 2 females). Hair on the back was clipped. […] An equivalent Vehicle Treatment Area was marked on the left side of the animal, such that the two treatment areas were anatomically equivalent. […] After 42 days of treatment, plasma pharmacokinetics (PK) was assessed on all animals by Liquid Chromatography/Tandem Mass Spectrometry. Necropsy was done and samples of skin, subcutaneous fat, and muscle were collected en bloc from each treatment area in a controlled fashion. […] Table 5 presents the thicknesses of subcutaneous fat on each of six treated and control (vehicle) locations, by animal. […] Table 6 compares plasma PK following percutaneous administration (present study) with plasma PK following oral administration in humans.

[3] = oral, 4 mg/d, humans; cited from earlier work
subcutaneous fat [4] = assay: Mouse study of percutaneous rosiglitazone, methods of Example 1 (Example 2); conditions: rosiglitazone 0.1% or 0.3% by weight
subcutaneous fat [5] = assay: Clinical application for augmentation of the buttocks (Example 9); format: in vivo, human; conditions: 10 mg/ml in Lipoderm daily, after 6 months
Method: The following description exemplifies a clinical application of percutaneous administration of an orexigenic pregnane derivative for augmentation of the buttocks. A female or male patient wishes to undergo a buttocks augmentation procedure but is concerned about the risks of surgery. The physician prescribes a daily application of megestrol acetate (for example, 10 mg/ml in Lipoderm®) to the buttocks.

SMILES | Mean weight gain relative to vehicle (subcutaneous fat [1]) | Mean weight gain (subcutaneous fat [1]) | Local increase in subcutaneous fat (treated right flank vs untreated left flank) (subcutaneous fat [1]) | also measured
O=C1Nc2ccc(Cl)cc2[C@@](C#CC2CC2)(C(F)(F)F)O1 [Efavirenz] | 92% | 6.1 g | did not exhibit any increase in fat or asymmetry | 
CN(CCOc1ccc(CC2SC(=O)NC2=O)cc1)c1ccccn1 (stereo not drawn) [Rosiglitazone] |  |  |  | Fat Thickness (mm), Rosiglitazone Treatment Area, MEAN (subcutaneous fat [2]; mean of 24 locations, vehicle mean 4.39, p < .0001 (paired t-test)): 6.29* mm; Rosiglitazone Increase over Placebo (fat thickness), MEAN (subcutaneous fat [2]): 48%; Rosiglitazone Increase over Placebo (fat thickness), MEAN (subcutaneous fat [2]; listed as rosiglitazone): 48%; Tolerability, skin irritation and clinical observations (subcutaneous fat [2]; minipig, in vivo): well tolerated, with no evidence of skin irritation or other clinical observations; Peak plasma level (Cmax) [3]: 355 ng/mL; Plasma exposure (AUC0-24) [3]: 2542 ng·h/mL; Adverse effects (subcutaneous fat [4]): No adverse effects were noted
COc1ccc2c(c1)[nH]c1c(C)nccc12 [Harmine] | 102% | 6.8 g | did not exhibit any increase in fat or asymmetry | 
CCc1ccc(CCOc2ccc(CC3SC(=O)NC3=O)cc2)nc1 (stereo not drawn) [Pioglitazone] | 112% | 7.4 g |  | 
CC(=O)O[C@]1(C(C)=O)CC[C@H]2[C@@H]3C=C(C)C4=CC(=O)CC[C@]4(C)[C@H]3CC[C@@]21C [Megestrol acetate] | 120% | 8.0 g | local increases in subcutaneous fat | Relative skin fold thickness of the left and right flanks (subcutaneous fat [1]; Day 24, treated vs untreated flank): asymmetric, with thicker skin folds on the treated flanks; Skin fold thickness, right (treated) flank (subcutaneous fat [1]; representative mouse, 24 days of treatment, untreated left flank about 2 mm): about 4 mm; Clinical size of buttocks (subcutaneous fat [5]): the buttocks appear clinically larger
